# Measurements as given in ChEMBL document CHEMBL1151033, “Tricyclic cephems as inhibitors of human leukocyte elastase. Furo[3,4-c]cepham sulfones” (Bioorg Med Chem Lett, 1995).
# Tests used:
# [1] = Hydrolytic stability at 37 degrees Celsius in 50 mM phosphate buffer (2 % v/v MeCN as solubilising vehicle) at pH 7.4; assay type: physicochemical
# [2] = target: T1, Neutrophil elastase (Homo sapiens) (UniProt P08246); test: Inhibitory activity against human leukocyte elastase (HLE) expressed as second order inhibition rate constant
# T1 sequence (whole entry): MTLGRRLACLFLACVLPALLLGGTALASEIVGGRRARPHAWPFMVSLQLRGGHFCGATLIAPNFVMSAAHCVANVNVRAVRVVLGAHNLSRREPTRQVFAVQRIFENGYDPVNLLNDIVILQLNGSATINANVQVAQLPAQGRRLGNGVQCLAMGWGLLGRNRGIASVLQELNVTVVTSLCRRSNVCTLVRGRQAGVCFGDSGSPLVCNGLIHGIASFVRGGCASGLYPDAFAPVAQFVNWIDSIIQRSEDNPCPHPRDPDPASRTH
SMILES,half-life [1] [h],k on [2] [M⁻¹ s⁻¹]
CO[C@H]1C(=O)N2C(C(=O)C(C)(C)C)=C(C)CS(=O)(=O)[C@H]12,104,–
CO[C@H]1C(=O)N2C(C(=O)c3ccccc3)=C(C)CS(=O)(=O)[C@H]12,26,–
CO[C@H]1C(=O)N2c3c(coc3C(C)(C)C)[C@]3(CC3(c3ccccc3)c3ccccc3)S(=O)(=O)[C@H]12,520,8800

# Results, then the molecule that gave them:
half-life [1] [h],k on [2] [M⁻¹ s⁻¹],SMILES
180,500,CO[C@H]1C(=O)N2c3c(coc3C(C)(C)C)CS(=O)(=O)[C@H]12
140,1000,CO[C@H]1C(=O)N2c3c(coc3C(C)(C)C)[C@@H](C)S(=O)(=O)[C@H]12
71,2000,CO[C@H]1C(=O)N2c3c(coc3-c3ccccc3)CS(=O)(=O)[C@H]12
–,1100,CO[C@H]1C(=O)N2c3c(coc3C(C)(C)C)[C@@H](CC(=O)OC(C)(C)C)S(=O)(=O)[C@H]12
